# Laboratory results: US6043258A (Eli Lilly and Company, priority 1998, dated 2000)
# pKi: −log10 of the molar value.
# Legend:
# D2 receptor subtype = experiment: pharmacological studies at D2 receptor subtype
# [1] = molecular target: muscarinic receptors (^3 H-oxotremorine-M binding); experiment: ^3 H-oxotremorine-M binding inhibition; settings: radioligand ^3 H-oxotremorine-M; read-out: inhibition constant (Ki), binding of ^3 H-oxotremorine-M
# 5HT1D receptor subtype = experiment: 5HT1D receptor affinity; format: binding
# [2] = system: m4 receptors (CHO m4 cells); experiment: cAMP formation in CHO m4 cells treated with pertussis toxin; format: cell-based
# Source text: Muscarinic agonists stimulate the formation of cAMP up to 10 fold in CHO m4 cells treated with pertussisi toxin and the pharmacology is consistent with the mediation by m4 receptors. Eckols K. Soc. Neurosci Abstr., 21:2040 (1995).
structure (smiles),measurement,setting,value
"CCCCCCOc1nsnc1C1=CCCN(C)C1 [xanomeline, 3-(4-hexyloxy-1,2,5-thiadiazol-3-yl)-1,2,5,6-tetrahydro-1-methylpyridine]",activity at the D2 receptor subtype,D2 receptor subtype,active at the D2 receptor subtype
same,pKi,[1],8.70
same,pKi,5HT1D receptor subtype,6.74
same,stimulation of the formation of cAMP,[2],efficaciously and potently stimulated the formation of CAMP
